Test results from PubChem BioAssay (NCI).
“And” between values parts separate entries of the source, which are not always exact repeats. Equal entries are not always repeated.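 A five-concentration, 48-hour dose response in 96-well plates underlies each endpoint, interpolated linearly between surrounding concentrations. GI50 = concentration required for 50% inhibition of growth. The concentration for full growth arrest is given as TGI.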 Starred links: 1 amine or outer side, 2 acyl side, 3 side chain; linkers in the order of their positions; H or OH if unused. Positions of bridges follow the written chain, without caps; N, C: chain ends. Non-standard residues stand in square brackets, D forms with d. Residues, ends and D or L forms follow the SMILES beside them. Chains are numbered I, II in the order given. Actinocin(1to9) = Cc1c2oc3c(C)ccc(C(=O)[*:2])c3nc-2c(C(=O)[*:1])c(N)c1=O; NMeV = CN[CH](C(=O)O)C(C)C; Sar = CNCC(=O)O

What was measured:
Assay in all cases: NCI-60 cell line screen, 48 h
MDA-MB-231 breast = test system: MDA-MB-231 breast
T-47D breast = test system: T-47D breast
U251 CNS = test system: U251 CNS
HCC-2998 colon = test system: HCC-2998 colon
NCI/ADR-RES ovarian = test system: NCI/ADR-RES ovarian
HT29 colon = test system: HT29 colon
SF-295 CNS = test system: SF-295 CNS
OVCAR-3 ovarian = test system: OVCAR-3 ovarian
SF-539 CNS = test system: SF-539 CNS
LOX IMVI melanoma = test system: LOX IMVI melanoma
SF-268 CNS = test system: SF-268 CNS

| SMILES | TGI (MDA-MB-231 breast) | TGI (T-47D breast) [µM] | TGI (U251 CNS) [µM] | TGI (HCC-2998 colon) [µM] | TGI (NCI/ADR-RES ovarian) [µM] | TGI (HT29 colon) [µM] | TGI (SF-295 CNS) [µM] | TGI (OVCAR-3 ovarian) [µM] | TGI (SF-539 CNS) [µM] | TGI (LOX IMVI melanoma) [µM] | TGI (SF-268 CNS) [µM] | GI50 (MDA-MB-231 breast) [µM] | GI50 (T-47D breast) [µM] | GI50 (U251 CNS) [µM] | GI50 (HCC-2998 colon) [µM] | GI50 (SF-539 CNS) [µM] | GI50 (NCI/ADR-RES ovarian) [µM] | GI50 (HT29 colon) [µM] | GI50 (SF-268 CNS) [µM] | GI50 (OVCAR-3 ovarian) [µM] |
| --- | --- | --- | --- | --- | --- | --- | --- | --- | --- | --- | --- | --- | --- | --- | --- | --- | --- | --- | --- | --- |
| CC(=O)OC1CC[C@@]2(C)C(=CC[C@@H]3[C@@H]2CC[C@]2(C)Nc4nn(S(C)(=O)=O)cc4C[C@@H]32)C1 (some centres undefined) | > 100 µM | 54.5 | > 100 | > 100 | > 100 | 25.4 | > 100 | 57.8 | – | – | – | – | – | – | – | – | – | – | – | – |
| O=C(O[C@@H](/C=C/c1ccccc1)P1(=O)N(Cc2ccccc2)[C@H]2CCCC[C@@H]2N1Cc1ccccc1)c1ccccc1 | 6.95 µM | 47.2 | 11.1 | 18.2 | > 100 | > 100 | > 100 | 33.9 | 21.3 | 14 | > 100 | – | – | – | – | – | – | – | – | – |
| CC(ON(C(c1ccccc1)C(C)C)C(C)(C)C)c1ccccc1 (centres undefined) | 39.3 µM | 81 | 30.9 | 33.7 | 56.7 | 43.5 | 28.5 | 30 | 43.7 | 35.3 | 52.2 | – | – | – | – | – | – | – | – | – |
| CCC(C)C1NC(=O)C(NC(=O)c2c3nc4c(C(=O)NC5C(=O)NC(C(C)CC)C(=O)N6CCCC6C(=O)N(C)CC(=O)N(C)C(C(C)C)C(=O)OC5C)ccc(C)c4oc-3c(C)c(=O)c2N)C(C)OC(=O)C(C(C)C)N(C)C(=O)CN(C)C(=O)C2CCCN2C1=O (centres undefined) (I: TIP[Sar][NMeV] / II: TIP[Sar][NMeV]; ester I:1-I:C, II:1-II:C; linker I:N-II:N via Actinocin(1to9); configuration not given here) | 0.156 µM and 0.481 µM | 0.0122 | 10.9 | 0.0364 | 2.63 | 11.5 | – | 0.0389 | 0.00698 | – | 0.0586 | – | – | – | – | – | – | – | – | – |
| COc1cc2oc(=O)ccc2cc1C(=O)CC(C)C | > 100 µM | > 100 | > 100 | > 100 | > 100 | > 100 | > 100 | > 100 | > 100 | > 100 | > 100 | – | – | – | – | – | – | – | – | – |
| N#CC12Cc3cc4c(cc3-c3cccc(c31)CCN2C(=O)c1ccccc1)OCO4 (centres undefined) | – | – | > 100 | > 100 | – | > 100 | > 100 | > 100 | > 100 | > 100 | > 100 | – | – | – | – | – | – | – | – | – |
| O=c1c2cc(I)ccc2nc(SCc2nncs2)n1Cc1ccccc1 | 76.7 µM | > 100 | > 100 | > 100 | > 100 | > 100 | > 100 | > 100 | 84.1 | > 100 | > 100 | – | – | – | – | – | – | – | – | – |
| Cc1coc2c1C[C@@]1(C)[C@H](CCC[C@@H]1C)[C@H]2O | 55.9 µM | 84.2 | > 100 | > 100 | 68.3 | > 100 | > 100 | 57.8 | 62.8 | > 100 | > 100 | – | – | – | – | – | – | – | – | – |
| CC(O)(Cc1ccccc1C#N)Cc1ccccc1C#N | > 100 µM | > 100 | > 100 | > 100 | > 100 | > 100 | > 100 | > 100 | > 100 | > 100 | > 100 | – | – | – | – | – | – | – | – | – |
| Cc1cc(C)n(CC(Cn2nc(C)cc2C)=C(/C(Cl)=C(/Cl)Nc2ccc([N+](=O)[O-])cc2)[N+](=O)[O-])n1 | 25.5 µM | 17.3 | 13.5 | 11.7 | > 32.8 | 11.3 | 20.9 | 15.2 | 9.27 | 6.06 | 19.8 | – | – | – | – | – | – | – | – | – |
| Nc1c(C(=O)O)nnc2cc(Cl)c(Cl)cc12 | > 100 µM | > 100 | > 100 | > 100 | > 100 | > 100 | > 100 | > 100 | > 100 | > 100 | > 100 | – | – | – | – | – | – | – | – | – |
| Cn1cnc([N+](=O)[O-])c1Sc1nc(N)nc2c1ncn2C1OC(CO)C(O)C1O (centres undefined) | > 100 µM | > 100 | > 100 | 15.3 | > 100 | 33.6 | > 72.6 | > 43.4 | 85.6 | > 21.4 | > 100 | – | – | – | – | – | – | – | – | – |
| CC(C)(C)OC(=O)NC(CCCCNC(=O)OCc1ccccc1)C(=O)NCCNc1ccc(NCCNC(=O)C(CCCCNC(=O)OCc2ccccc2)NC(=O)OC(C)(C)C)c2c1C(=O)c1ccccc1C2=O (centres undefined) | 38.2 µM | 28 | 17.1 | > 100 | > 100 | > 100 | > 100 | > 100 | > 52.8 | > 100 | > 64.6 | – | – | – | – | – | – | – | – | – |
| CC(C)(C)OC(=O)n1c2ccccc2c2c(=O)nc(N3CCCCC3)sc21 | > 100 µM | > 100 | > 100 | – | > 100 | > 100 | > 100 | > 100 | > 100 | > 100 | > 100 | – | – | – | – | – | – | – | – | – |
| CN(C)c1ccc(C=Nc2ccc(Oc3ccc(Cl)cc3)c(Cl)c2)cc1 | 38.5 µM | 75.3 | 34.7 | 38.9 | 33.2 | 29.6 | 50.9 | 32.4 | 39.8 | 47.6 | 28.1 | – | – | – | – | – | – | – | – | – |
| OCc1cn(C(c2ccccc2)(c2ccccc2)c2ccccc2)cn1 | > 100 µM | > 100 | > 100 | > 100 | > 100 | > 100 | 89.7 | > 100 | – | > 100 | – | – | – | – | – | – | – | – | – | – |
| COc1ccc(C2NC(=S)Nc3c2c(=O)oc2c3ccc3ccccc32)cc1 (centres undefined) | > 100 µM | > 100 | > 100 | – | > 100 | > 100 | > 100 | > 100 | – | > 100 | > 100 | – | – | – | – | – | – | – | – | – |
| COCCNCc1ccc(-c2cc3nccc(Oc4ccc(NC(=S)NC(=O)Cc5ccc(F)cc5)cc4F)c3s2)nc1 | 4.1 µM | 5.75 | 2.94 | 26.9 | 5.2 | 3.19 | – | 3.52 | 2.41 | – | 4.73 | 1.97 | 2.12 | 1.53 | 4.68 | 0.909 | 2.02 | 1.45 | 1.88 | 1.93 |
| CN(C)c1ccc(C=Nc2ccc(-c3nc4ccccc4[nH]3)cc2)cc1 | > 100 µM | > 100 | > 100 | – | 27.7 | > 100 | > 100 | > 100 | > 100 | > 100 | > 100 | – | – | – | – | – | – | – | – | – |
| Clc1ccccc1/C=c1\nc(-c2ccccc2)n2c1nc1ccccc12 | 73.1 µM | > 100 | 61.3 | – | > 100 | > 100 | 31.2 | > 100 | 41.9 | > 100 | 54.6 | – | – | – | – | – | – | – | – | – |
| Cn1c(=O)[nH]c2nncnc2c1=O | – | – | 312 | > 442 | > 625 | > 561 | 325 | 298 | 246 | > 625 | > 625 | – | – | – | – | – | – | – | – | – |
| O=c1[nH]c2nnc(COc3ccc(Cl)cc3Cl)n2nc1Cc1ccccc1 | > 100 µM | > 100 | 53.1 | – | > 100 | > 100 | > 100 | 74.3 | 39.8 | > 100 | > 100 | – | – | – | – | – | – | – | – | – |
| O=C(CSc1nc2ccc([N+](=O)[O-])cc2s1)c1ccc2ccccc2c1 | > 100 µM | > 100 | > 100 | > 100 | > 100 | > 100 | > 100 | > 100 | > 100 | > 100 | > 100 | – | – | – | – | – | – | – | – | – |
| C[N+]1(CCC(=O)c2ccco2)CC2CCC(CC2)C1 (centres undefined) | > 100 µM | > 100 | > 100 | – | > 100 | > 100 | > 100 | > 100 | > 100 | > 100 | > 100 | – | – | – | – | – | – | – | – | – |
| COc1ccc2nc3c(C(=O)NCCN(C)C)cccc3cc2c1 | – | – | 14.2 | 16.2 | 4.99 | 6.37 | 6.2 | > 28.6 | 7.79 | 3.59 | 12.1 | – | – | – | – | – | – | – | – | – |
| COc1c(CC=C(C)C)c(O)c(C(CC(C)C)c2c(O)c3c(c(C(C)=O)c2O)OC(C(C)(C)O)C3)c(O)c1C(C)=O (centres undefined) | – | 9.21 | – | > 12.5 | 11.1 | > 12.5 | > 12.5 | > 12.5 | > 12.5 | > 12.5 | > 12.5 | – | – | – | – | – | – | – | – | – |
| O=c1ccc2nc3cc(Br)ccc3sc-2c1 | – | – | > 100 | > 100 | – | > 100 | > 100 | > 100 | > 100 | – | > 100 | – | – | – | – | – | – | – | – | – |
| O=c1[nH]c(Nc2ccc(Cl)c(C(F)(F)F)c2)nc2nc[nH]c12 | > 100 µM | > 100 | > 100 | 57.4 | > 100 | > 100 | > 100 | > 100 | > 100 | 81.7 | > 100 | – | – | – | – | – | – | – | – | – |
| c1ccc(-c2nnn3c2NC2=C(CCCC2)C3c2ccccc2)cc1 (centres undefined) | 64.6 µM | 49.9 | 26 | – | 52.4 | 28.4 | 49.7 | 37.7 | 35.8 | 27 | 48.9 | – | – | – | – | – | – | – | – | – |
| CC1=CC(=O)CC(C)(C)C1/C=C/C(C)=C/C=C/C(C)=C/C=C/C=C(C)/C=C/C=C(C)/C=C/C1C(C)=CC(=O)CC1(C)C (centres undefined) | > 100 µM | > 100 | > 100 | > 100 | > 100 | > 100 | > 100 | > 100 | > 100 | 85.6 | > 100 | – | – | – | – | – | – | – | – | – |
